According to patent US11510887B2, “Sobetirome in the treatment of myelination diseases” (Oregon Health & Science University, priority 2013, dated 2022):

Tests used:
[1] = system: corpus callosum of mice following injection of lysolecithin; test: Lysolecithin toxin model of focal demyelination; assay type: in vivo, C57BL/6 mice; details: 8 days after lysolecithin injection, daily i.p. from 7 days before to 8 days after, sobetirome 1.0 mg/kg/day, T3 0.4 mg/kg/day
Method: FIG. 1: Sobetirome reduced demyelination in the corpus callosum of mice following injection of lysolecithin. Top, BlackGold® stain is specific for myelin fibers and cresyl violet is used as a counterstain. Mice received stereotactic injections of 2 μL of PBS or 2% lysolecithin in the corpus callosum. A white arrow indicates the path of the injection needle and a black box indicates the lesion site. An enlarged image of the boxed lesion site is shown to the right. Bottom, brain sections of 30 μm were stained with FluoroMyelin™, anti-PDGFR-α and DAPI. Hypothyroidism was induced with drinking water treatment, and both hypothyroid and control mice received vehicle injections. T3 (0.4 mg/kg) and sobetirome (1 mg/kg) were administered by daily i.p. injections starting 7 days before stereotactic injection of lysolecithin. Mice were euthanized 8 days after stereotactic injection of 2% lysolecithin, and brains were harvested and processed for histological analysis.
Lysolecithin was injected into the corpus callosum using stereotactic equipment at the x, y, z coordinates of +1.000, +1.050, and +2.000 mm from the Bregma point using a beveled needle with the bevel facing caudally. To minimize trauma, 2 μL of 2% lysolecithin or 2 μL of PBS was injected over four minutes using a micropump injector and the beveled needle was held in place for five minutes before withdrawal. […]

C57BL/6 mice with EAE = test: EAE induced with MOG 35-55 peptide; assay type: in vivo, C57BL/6 female mice
Method: FIG. 2: Sobetirome reduces demyelination in mice with EAE. […] EAE was induced in female mice with MOG 35-55 peptide. On day 17 post immunization, mice were randomized based on their EAE scores and daily i.p. injections of sobetirome (n=8) or vehicle (n=8) were started. Mice were euthanized after 11 days of treatment and spinal cords were prepared for histological evaluation. The mean percentage of ventrolateral demyelination for vehicle treated mice was 17.25 (SD+/−7.09) and 9.11 (SD+/−4.96) for sobetirome (p<0.01).
This study was performed to assess the effects of sobetirome on EAE in C57BL/6 female mice immunized with MOG 35-55 peptide. Seventeen days after immunization, at peak of clinical disease, mice were randomized to receive daily injections of sobetirome (1 mg/kg/day) or vehicle. After 11 days of treatment, mice were euthanized and processed for histologic examination. […] This is because the degree of inflammation within the spinal cords was similar between the two groups (Table 1) and much of the short term paralysis that occurs in EAE is secondary to effects of inflammation on neural function. […] Much of the effect appears related to protection of axons and myelin from damage (FIG. 3). Thus, sobetirome has a neuroprotective effect that decreases axonal damage and demyelination.

Structure (SMILES)	areas of demyelination compared with vehicle [1]	% CD4 Staining (T cell marker) (C57BL/6 mice with EAE; immunofluorescent staining of lumbosacral spinal cord sections, vehicle 1.01) [%]	% CD11b Staining (macrophage marker) (C57BL/6 mice with EAE; immunofluorescent staining of lumbosacral spinal cord sections, vehicle 3.89) [%]	EAE clinical scores versus vehicle (C57BL/6 mice with EAE; sobetirome 1 mg/kg/day, 11 days of treatment from day 17 after immunization)	demyelination in lateral columns of the lumbosacral cord versus vehicle (C57BL/6 mice with EAE; sobetirome 1 mg/kg/day, 11 days of treatment, p<0.01)	mean percentage of ventrolateral demyelination (area of damage in ventrolateral white matter) (C57BL/6 mice with EAE; spinal cord, after 11 days of daily i.p. treatment started day 17 post immunization, n=8, vehicle 17.25 (SD+/−7.09), p<0.01)
Cc1cc(OCC(=O)O)cc(C)c1Cc1ccc(O)c(C(C)C)c1 [Sobetirome]	much smaller areas of demyelination	1.24	5.76	did not differ significantly	significantly less demyelination	9.11 (SD+/−4.96) %
N[C@@H](Cc1cc(I)c(Oc2ccc(O)c(I)c2)c(I)c1)C(=O)O [T3, triiodothyronine]	much smaller areas of demyelination					
